Consider five compounds from PubChem BioAssay AID1963429 (Molecular Pharmacology Branch, DTP, NCI, 2024).

The assay has as its system 126254-015-R-J1-PDC complex spheroid growth, % test/control. Kind of assay: Anticancer human tumor 126254-015-R-J1-PDC patient-derived soft tissue sarcoma cell line growth inhibition [Asc]. Particulars: for viability, T/C: stronger effect = lower value. The gist of the method: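 Stromal components (HUVEC and hMSC) are co-assembled with the cancer cells into multicellular spheroids. Drugs are then added singly or paired, at concentrations falling by half-log increments from a clinically achievable maximum, capped at 10 microM without known Cmax.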

[1] abbreviates: curve of first compound, second compound 0.1 µM.
The mark [2] stands for this setting: curve of first compound, second compound 0.316 µM.
The mark [3] stands for this setting: curve of first compound, second compound 1 µM.

Where “and” joins values, the source holds several entries; their conditions need not be identical. Equal entries are not always repeated.
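Also: spheroids exposed to compound for seven days.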
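For viability, T/C in this document: 100% = DMSO vehicle control wells.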

Take `C#Cc1c(F)ccc2cc(O)cc(-c3ncc4c(N5CC6CCC(C5)N6)nc(OCC56CCCN5CC(F)C6)nc4c3F)c12` (stereo unspecified): the viability, T/C was 97.4% and 92.6% and 97.8% (compound 0.0316 µM); 92.8% and 89.8% and 108% (compound 0.1 µM); 100% and 97.5% and 103% (compound 0.316 µM); 94.1% and 97.4% and 93.6% (compound 1 µM); 101% and 95% and 92.8% (compound 3.16 µM); 82.5% and 76.4% and 72.9% (compound 10 µM). In addition, the concentration for half-maximal inhibition (IC50) (curve of compound) was over 10 µM.

On to `O=C(c1cc(Cc2n[nH]c(=O)c3ccccc23)ccc1F)N1CCN(C(=O)C2CC2)CC1` + Cc1c(S(C)(=O)=O)c(-c2cc(F)cc(N3CCN(c4ccc(NS(=O)(=O)c5ccc(NC(CCN6CCC(C(=O)OCCCP(=O)(O)O)CC6)CSc6ccccc6)c(S(=O)(=O)C(F)(F)F)c5)cc4)CC3)c2)c(-c2ccc(Cl)cc2)n1C(C)C, for which the concentration for half-maximal inhibition (IC50) under setting [1] was over 10 µM; the half-maximal inhibitory concentration (IC50) under setting [2] is 9.75 µM; the half-inhibitory concentration (IC50) under setting [3] came to 7.04 µM; the IC50 (curve of first compound, second compound 3.16 µM) amounted to 5.75 µM; the IC50 (curve of first compound, second compound 10 µM) was over 10 µM. Moreover, the viability, T/C (second compound 0.1 µM, first compound 0.0316 µM) is 77.8%; the viability, T/C (second compound 0.1 µM, first compound 0.1 µM) is 81.8%; the viability, T/C (second compound 0.1 µM, first compound 0.316 µM) is 80%; the viability, T/C (second compound 0.1 µM, first compound 1 µM) was 71.8%; the viability, T/C (second compound 0.1 µM, first compound 3.16 µM) is 66.8%; the viability, T/C (second compound 0.1 µM, first compound 10 µM) was 56.2%. In addition, the viability, T/C was 87.3% (second compound 0.316 µM, first compound 0.0316 µM); 79.3% (second compound 0.316 µM, first compound 0.1 µM); 80.2% (second compound 0.316 µM, first compound 0.316 µM); 67.6% (second compound 0.316 µM, first compound 1 µM); 73.9% (second compound 0.316 µM, first compound 3.16 µM); 47.8% (second compound 0.316 µM, first compound 10 µM). For the same compound, the viability, T/C reads like this: (second compound 1 µM, first compound 0.0316 µM) 77%; (second compound 1 µM, first compound 0.1 µM) 72.8%; (second compound 1 µM, first compound 0.316 µM) 65.7%; (second compound 1 µM, first compound 1 µM) 71.3%; (second compound 1 µM, first compound 3.16 µM) 58.1%; (second compound 1 µM, first compound 10 µM) 45.8%. Besides, the viability, T/C is 75% (second compound 3.16 µM, first compound 0.0316 µM); 68.7% (second compound 3.16 µM, first compound 0.1 µM); 74.5% (second compound 3.16 µM, first compound 0.316 µM); 65.5% (second compound 3.16 µM, first compound 1 µM); 59.2% (second compound 3.16 µM, first compound 3.16 µM); 41.8% (second compound 3.16 µM, first compound 10 µM). In addition, the viability, T/C runs as follows: (second compound 10 µM, first compound 0.0316 µM) 75.9%; (second compound 10 µM, first compound 0.1 µM) 80.5%; (second compound 10 µM, first compound 0.316 µM) 72.1%; (second compound 10 µM, first compound 1 µM) 70.6%; (second compound 10 µM, first compound 3.16 µM) 60.6%; (second compound 10 µM, first compound 10 µM) 55.3%.

Regarding `CCN1C(C(=O)NC23CCC(C(=O)O)(CC2)CC3)C(c2cccc(Cl)c2F)C2(C(=O)Nc3cc(Cl)ccc32)C12CCCCC2` (stereo unspecified) + CNC(C)C(=O)NC1CN(S(=O)(=O)c2cccc(S(=O)(=O)N3CCC4CCC(C(=O)NC(c5ccccc5)c5ccccc5)N4C(=O)C(NC(=O)C(C)NC)C3)c2)CCC2CCC(C(=O)NC(c3ccccc3)c3ccccc3)N2C1=O, the IC50 was over 3 µM (curve of first compound, second compound 0.01 µM); over 3 µM (curve of first compound, second compound 0.0316 µM); over 3 µM under setting [1]; over 3 µM under setting [2]; over 3 µM under setting [3]. The viability, T/C reads like this: (second compound 0.01 µM, first compound 0.00949 µM) 88.3%; (second compound 0.01 µM, first compound 0.03 µM) 86.9%; (second compound 0.01 µM, first compound 0.0949 µM) 87.7%; (second compound 0.01 µM, first compound 0.3 µM) 77.1%; (second compound 0.01 µM, first compound 0.949 µM) 79.8%; (second compound 0.01 µM, first compound 3 µM) 81.2%. The viability, T/C is 74.4% (second compound 0.0316 µM, first compound 0.00949 µM); 69.4% (second compound 0.0316 µM, first compound 0.03 µM); 70.2% (second compound 0.0316 µM, first compound 0.0949 µM); 74.5% (second compound 0.0316 µM, first compound 0.3 µM); 66.4% (second compound 0.0316 µM, first compound 0.949 µM); 72.3% (second compound 0.0316 µM, first compound 3 µM). Besides, the viability, T/C reads like this: (second compound 0.1 µM, first compound 0.00949 µM) 66%; (second compound 0.1 µM, first compound 0.03 µM) 70%; (second compound 0.1 µM, first compound 0.0949 µM) 67.4%; (second compound 0.1 µM, first compound 0.3 µM) 64.6%; (second compound 0.1 µM, first compound 0.949 µM) 67.7%; (second compound 0.1 µM, first compound 3 µM) 66.5%. Also, the viability, T/C is 54.8% (second compound 0.316 µM, first compound 0.00949 µM); 68% (second compound 0.316 µM, first compound 0.03 µM); 60.7% (second compound 0.316 µM, first compound 0.0949 µM); 57.2% (second compound 0.316 µM, first compound 0.3 µM); 61% (second compound 0.316 µM, first compound 0.949 µM); 73% (second compound 0.316 µM, first compound 3 µM). For the same compound, the viability, T/C reads like this: (second compound 1 µM, first compound 0.00949 µM) 52.8%; (second compound 1 µM, first compound 0.03 µM) 60.8%; (second compound 1 µM, first compound 0.0949 µM) 61.1%; (second compound 1 µM, first compound 0.3 µM) 64%; (second compound 1 µM, first compound 0.949 µM) 61.5%; (second compound 1 µM, first compound 3 µM) 63.2%.

For `O=C(c1cc(Cc2n[nH]c(=O)c3ccccc23)ccc1F)N1CCN(C(=O)C2CC2)CC1`, the viability, T/C reads like this: (compound 0.0316 µM) 95.9% and 107% and 96.9%; (compound 0.1 µM) 93.1% and 96.8% and 103%; (compound 0.316 µM) 88.4% and 102% (2×); (compound 1 µM) 86.6% and 93.3% and 97.7%; (compound 3.16 µM) 79.3% and 83.1% and 87.7%; (compound 10 µM) 64.2% and 68.1% and 68.5%. For the same compound, under “curve of compound”, the concentration for half-maximal inhibition (IC50) was over 10 µM.

Take `C=C(F)C(=O)N1CCN(c2nc(OCC3CCCN3C)nc3c2CCN(c2cccc4cccc(Cl)c24)C3)CC1CC#N` (stereo unspecified): the viability, T/C by setting is: (compound 0.0316 µM) 92% and 107% and 106%; (compound 0.1 µM) 96.8% and 102% and 95.5%; (compound 0.316 µM) 94% and 110% and 105%; (compound 1 µM) 92.7% and 106% and 93.5%; (compound 3.16 µM) 37.7% and 43.4% and 69.6%; (compound 10 µM) 0.22% and 0.29% and 0.24%. Also, the IC50 (curve of compound) is 2.45 µM and 2.8 µM and 4.36 µM.
